What was measured:
Assay type in all cases: cell-based, Human
[1] = system: histone modifications in 2102EP cells; assay: Mass spectrometry analysis of histone modifications (Mod Spec)
Procedure, shortened: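 2102EP cells were treated for 16 h with EC50 concentrations of Quisinostat, JIB-04, Chaetocin, MZ-1, LP99, PRT4165 or GSK343, with DMSO as solvent control. After trypsin harvest, histones were extracted and analysed by mass spectrometry. Raw data were converted to z-scores.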

[2] = system: DNA methylation (5mC, 5hmC) in 2102EP cells; assay: DNA slot blot (5mC, 5hmC); conditions: 24 h
Description: Purity of DNA was verified using NanoDrop 260/280 ratio and agarose gel electrophoresis. DNA was diluted in H2O to 200 ng, 100 ng and 50 ng in 200 µl per slot. Slot-Blotter device (Carl Roth GmbH + Co KG, Karlsruhe, Germany) was assembled as according to the manual. DNA was blotted onto a positively charged nylon membrane (Carl Roth GmbH + Co KG, Karlsruhe, Germany) using vacuum application. Three identical membranes were prepared. The membranes were air-dried for 15—20 min and UV-crosslinked (20 s (s), 1200 mJ/cm^2). One membrane was stained with methylene blue (0.02% methylene blue (Merck Millipore, Darmstadt, Germany) in 0.3 M sodium acetate (pH 5.2)) to validate DNA loading across the samples. The remaining two membranes were blocked in 5% milk powder in PBST for 1 h at RT. Membranes were incubated with 5mC or 5hmC antibody overnight at 4 °C. After washing, membranes were incubated with secondary antibody for 2 h at RT. Signals were detected using the ChemiDoc Imaging Systems (Bio-Rad Laboratories, Feldkirchen, Germany).

[3] = system: transcriptome of 2102EP cells; assay: RNA sequencing; conditions: 16 h
Procedure, shortened: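 Transcriptome of 2102EP cells sequenced; differential expression between two groups tested with p values FDR-corrected for multiple testing. Solvent-control values averaged across three datasets (GSE189472, GSE190792, GSE190022).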

[4] = 2102EP cells, Mod Spec raw data
[5] = 2102EP, EC50, 16 h, vs solvent control
[6] = sorted data log2>±1.5, FDR p<0.05

O=C1C(=Cc2cccnc2)C(=O)c2ccccc21 [PRT4165]
H1.4: K25AC, % of peptide pool [1, 4]: 0.05173%
H1.4: K25ME1, % of peptide pool [1, 4]: 2.298%
H1.4: K25ME2, % of peptide pool [1, 4]: 0.1042%
H1.4: K25ME3, % of peptide pool [1, 4]: 0.02395%
H1.4: K25UN, % of peptide pool [1, 4]: 97.522%
H2A1: K13AC, % of peptide pool [1, 4]: 0.008344%
H2A1: K13UN, % of peptide pool [1, 4]: 99.9917%
H2A1: K15AC, % of peptide pool [1, 4]: 0.002728%
H2A1: K15UB, % of peptide pool [1, 4]: 0%
H2A1: K15UN, % of peptide pool [1, 4]: 99.9973%
H2A3: K13AC, % of peptide pool [1, 4]: 0.03698%
H2A3: K13UN, % of peptide pool [1, 4]: 99.963%
H2A3: K15AC, % of peptide pool [1, 4]: 0.08285%
H2A3: K15UB, % of peptide pool [1, 4]: 0%
H2A3: K15UN, % of peptide pool [1, 4]: 99.9171%
H2A: K5AC, % of peptide pool [1, 4]: 15.4182%
H2A: K5UN, % of peptide pool [1, 4]: 84.5818%
H2A: K9AC, % of peptide pool [1, 4]: 1.95%
H2A: K9UN, % of peptide pool [1, 4]: 98.0496%
H2A: K36AC, % of peptide pool [1, 4]: 0.05592%
H2A: K36UN, % of peptide pool [1, 4]: 99.9441%
H3: K9AC, % of peptide pool [1, 4]: 0.7791%
H3: K9ME1, % of peptide pool [1, 4]: 33.7783%
H3: K9ME2, % of peptide pool [1, 4]: 30.8531%
H3: K9ME3, % of peptide pool [1, 4]: 3.071%
H3: K9UN, % of peptide pool [1, 4]: 31.5183%
H3: K14AC, % of peptide pool [1, 4]: 32.0961%
H3: K14UN, % of peptide pool [1, 4]: 67.9039%
H3: K18AC, % of peptide pool [1, 4]: 12.9985%
H3: K18ME1, % of peptide pool [1, 4]: 0.1614%
H3: K18UN, % of peptide pool [1, 4]: 86.8401%
H3: K23AC, % of peptide pool [1, 4]: 19.4498%
H3: K23ME1, % of peptide pool [1, 4]: 0.05975%
H3: K23UN, % of peptide pool [1, 4]: 80.4904%
H3: K56AC, % of peptide pool [1, 4]: 0.4117%
H3: K56ME1, % of peptide pool [1, 4]: 1.0746%
H3: K56UN, % of peptide pool [1, 4]: 98.5137%
H3: K64AC, % of peptide pool [1, 4]: 0.02258%
H3: K64UN, % of peptide pool [1, 4]: 99.9774%
H3: K79AC, % of peptide pool [1, 4]: 3.311%
H3: K79ME1, % of peptide pool [1, 4]: 23.508%
H3: K79ME2, % of peptide pool [1, 4]: 7.992%
H3: K79ME3, % of peptide pool [1, 4]: 11.4561%
H3: K79UN, % of peptide pool [1, 4]: 53.7325%
H3: K122AC, % of peptide pool [1, 4]: 0.1739%
H3: K122UN, % of peptide pool [1, 4]: 99.8261%
H3: Q19ME1, % of peptide pool [1, 4]: 0.01555%
H3: Q19UN, % of peptide pool [1, 4]: 99.9844%
H3: Q55ME1, % of peptide pool [1, 4]: 0.5287%
H3: Q55UN, % of peptide pool [1, 4]: 99.4713%
H3: R42ME2, % of peptide pool [1, 4]: 2.978%
H3: R42UN, % of peptide pool [1, 4]: 97.0223%
H3: R49ME2, % of peptide pool [1, 4]: 9.973%
H3: R49UN, % of peptide pool [1, 4]: 90.0271%
H3R2UN: K4AC, % of peptide pool [1, 4]: 0.1986%
H3R2UN: K4ME1, % of peptide pool [1, 4]: 18.1935%
H3R2UN: K4ME2, % of peptide pool [1, 4]: 0.2356%
H3R2UN: K4ME3, % of peptide pool [1, 4]: 0.09008%
H3R2UN: K4UN, % of peptide pool [1, 4]: 81.2822%
H3R2UN: Q5ME1, % of peptide pool [1, 4]: 0.1103%
H3R2UN: Q5UN, % of peptide pool [1, 4]: 99.8897%
H3.1: K27AC, % of peptide pool [1, 4]: 2.4319%
H3.1: K27ME1, % of peptide pool [1, 4]: 48.1679%
H3.1: K27ME2, % of peptide pool [1, 4]: 21.916%
H3.1: K27ME3, % of peptide pool [1, 4]: 3.429%
H3.1: K27UN, % of peptide pool [1, 4]: 24.0551%
H3.1: K36AC, % of peptide pool [1, 4]: 0.4356%
H3.1: K36ME1, % of peptide pool [1, 4]: 14.9062%
H3.1: K36ME2, % of peptide pool [1, 4]: 45.0841%
H3.1: K36ME3, % of peptide pool [1, 4]: 22.3724%
H3.1: K36UN, % of peptide pool [1, 4]: 17.2016%
H3.3: K27AC, % of peptide pool [1, 4]: 6.482%
H3.3: K27M, % of peptide pool [1, 4]: 0%
H3.3: K27ME1, % of peptide pool [1, 4]: 46.8114%
H3.3: K27ME2, % of peptide pool [1, 4]: 16.0905%
H3.3: K27ME3, % of peptide pool [1, 4]: 6.139%
H3.3: K27UN, % of peptide pool [1, 4]: 24.4778%
H3.3: K36AC, % of peptide pool [1, 4]: 3.39%
H3.3: K36ME1, % of peptide pool [1, 4]: 13.3786%
H3.3: K36ME2, % of peptide pool [1, 4]: 45.5834%
H3.3: K36ME3, % of peptide pool [1, 4]: 23.7392%
H3.3: K36UN, % of peptide pool [1, 4]: 13.9089%
H4: K5AC, % of peptide pool [1, 4]: 8.039%
H4: K5UN, % of peptide pool [1, 4]: 91.9614%
H4: K8AC, % of peptide pool [1, 4]: 12.3075%
H4: K8UN, % of peptide pool [1, 4]: 87.6925%
H4: K12AC, % of peptide pool ([1]; 2102EP cells, Mod Spec raw data, histone H4 K12 acetylated): 6.955 % of peptide pool
H4: K12UN, % of peptide pool ([1]; 2102EP cells, Mod Spec raw data, histone H4 K12 unmodified): 93.045 % of peptide pool
H4: K16AC, % of peptide pool ([1]; 2102EP cells, Mod Spec raw data, histone H4 K16 acetylated): 45.5782 % of peptide pool
H4: K16UN, % of peptide pool ([1]; 2102EP cells, Mod Spec raw data, histone H4 K16 unmodified): 54.4218 % of peptide pool
H4: K20AC, % of peptide pool ([1]; 2102EP cells, Mod Spec raw data, histone H4 K20 acetylated): 32.1833 % of peptide pool
H4: K20ME2, % of peptide pool ([1]; 2102EP cells, Mod Spec raw data, histone H4 K20 dimethylated): 44.5336 % of peptide pool
H4: K20ME1, % of peptide pool ([1]; 2102EP cells, Mod Spec raw data, histone H4 K20 monomethylated): 4.33 % of peptide pool
H4: K20ME3, % of peptide pool ([1]; 2102EP cells, Mod Spec raw data, histone H4 K20 trimethylated): 2.102 % of peptide pool
H4: K20UN, % of peptide pool ([1]; 2102EP cells, Mod Spec raw data, histone H4 K20 unmodified): 16.8517 % of peptide pool
change of histone modifications of the expected mode of action (Mod Spec) [1, 5]: decreased ubiquitination (ub) of the target histone H2AK119 [50] could not be detected
off-target changes of histone modifications (Mod Spec) [1, 5]: increase of H3K36me3, H4K20ac, H3K79me1/ac
5hmC levels increase compared to solvent control [2]: 25%
5mC levels compared to solvent control ([2]; solvent control set to 100%): 84%
BST2 Log2 fold change vs. DMSO [3, 6]: -2.05
EIF3CL Log2 fold change vs. DMSO [3, 6]: -2.52
MMP1 Log2 fold change vs. DMSO [3, 6]: 6.18
MMP10 Log2 fold change vs. DMSO [3, 6]: 6.89
PPFIA4 Log2 fold change vs. DMSO [3, 6]: -2.26
SPANXA1 Log2 fold change vs. DMSO [3, 6]: 5.74
A1BG Log2 fold change vs. DMSO ([3]; unsorted data): -0.25
A1CF Log2 fold change vs. DMSO ([3]; unsorted data): 0.91
A2M Log2 fold change vs. DMSO ([3]; unsorted data): 1.71
